Active and inactive are the calls of the source. The rule behind the calls is not given here.
Tests used:
Ehrlich [1] = test: Antineoplastic activity against mouse EAC allografted in CF1 mouse assessed as animal survival on day 7 measured at 33 mg/kg; type: functional, organism-based; parameters: dose 33 mg/kg
Ehrlich [2] = test: Antineoplastic activity against mouse EAC allografted in CF1 mouse assessed as packed cell volume on day 7 measured at 33 mg/kg (reference value: 32.75 +/- 7.87%); type: functional
Ehrlich [3] = test: Antineoplastic activity against mouse EAC allografted in CF1 mouse assessed as ascites volume on day 7 measured at 33 mg/kg (reference value: 4.1 +/- 1.24 mL); type: functional
Ehrlich [4] = test: Antineoplastic activity against mouse EAC allografted in CF1 mouse assessed as tumor growth inhibition on day 7 measured at 33 mg/kg; type: functional; settings: 168 h, read-out: TGI
[5] = Acute toxicity in CF1 mouse; type: organism-based; settings: in vivo
P388 [6] = test: Antitumor activity against mouse P388 cells allografted in DBA/2 mouse assessed as animal survival days at 20 mg/kg/day, ip; type: functional; settings: route intraperitoneal
P388 [7] = test: Antitumor activity against mouse P388 cells allografted in DBA/2 mouse assessed as median survival time of treated versus control mice (T/C) at 20 mg/kg/day, ip; type: functional; settings: route intraperitoneal

Row | SMILES | Activity (Ehrlich [1]) | Activity (Ehrlich [2]) | Activity (Ehrlich [3]) | inhibition in vivo at 33 mg/kg (Ehrlich [4]) | LD50 [5] | Survival (P388 [6]) | T/C (P388 [7])
1 | C=COC(=O)[C@H](Cc1ccccc1)NC(=O)c1ccccc1 | Active | 9.8% | 2.1 mL | 56.8% |  |  | 
2 | C=COC(=O)CCCCCNC(=O)OCc1ccccc1 | Active | 36% | 0.6 mL | 75% |  |  | 
3 | Cc1ccc(S(=O)(=O)N[C@@H](Cc2ccccc2)C(=O)OCC#N)cc1 |  | 3.4% | 0.4 mL | 97% |  |  | 
4 | C#CCOC(=O)C[C@H](NC(=O)OCc1ccccc1)C(=O)OCC#C | Active | 21% | 3.7 mL | 31% |  |  | 
5 | C#CCOC(=O)CNC(=O)OCc1ccccc1 | Active | 27% | 5.2 mL | 0% |  |  | 
6 | N#CCOC(=O)CNC(=O)OCc1ccccc1 | Active | 44.7% | 2.2 mL | 29% |  |  | 
7 | O=C(O)CCCCCNC(=O)OCc1ccccc1 | Active | 33% | 1 mL | 63% |  |  | 
8 | C=COC(=O)[C@H](CC(C)C)NC(=O)OCc1ccccc1 | Active | 38% | 0.9 mL | 48% |  |  | 
9 | Cc1ccc(S(=O)(=O)N[C@@H](Cc2ccc(OS(=O)(=O)c3ccc(C)cc3)cc2)C(=O)OCC#N)cc1 | Active | 6.5% | 0.8 mL | 53% |  |  | 
10 | O=C(O)CC[C@H](NC(=O)OCc1ccccc1)C(=O)O | Active | 28% | 0.7 mL | 81% | 1780 µmol/kg |  | 
11 | N#CCOC(=O)[C@H](Cc1c[nH]c2ccccc12)NC(=O)OCc1ccccc1 | Active | 19.7% | 4.3 mL | 38% |  |  | 
12 | C=COC(=O)[C@@H]1CCCN1C(=O)OCc1ccccc1 |  | 35% | 1 mL | 73% | 1820 µmol/kg |  | 
13 | O=C(OC(Br)CBr)[C@@H]1CCCN1C(=O)OCc1ccccc1 (some centres undefined) | Active | 10% | 2.1 mL | 84% | 190 µmol/kg |  | 
14 | C=COC(=O)CNC(=O)OCc1ccccc1 | Active | 34% | 1.5 mL | 63% | 2130 µmol/kg |  | 
15 | C=COC(=O)[C@H](Cc1ccccc1)NS(=O)(=O)c1ccc(C)cc1 |  | 19.2% | 3.8 mL | 56.8% |  |  | 
16 | N#CCOC(=O)[C@H](Cc1ccc(O)cc1)NC(=O)OCc1ccccc1 | Active | 31.1% | 4.5 mL | 0% |  |  | 
17 | Cc1ccc(S(=O)(=O)N[C@@H](Cc2ccccc2)C(=O)CCl)cc1 [TPCK] |  | 0.05% | 0.01 mL | 100% |  |  | 
18 | N#CCOC(=O)CC[C@H](NC(=O)OCc1ccccc1)C(=O)OCC#N | Active | 32% | 3.2 mL | 35% |  |  | 
19 | Sc1ncnc2nc[nH]c12 [MERCAPTOPURINE ANHYDROUS] | Active | 0.3% | 0.7 mL | 99.6% |  | 12 days | 148%
20 | O=C(O)CCCNC(=O)OCc1ccccc1 | Active | 32.3% | 0.8 mL | 71% |  |  | 
21 | C=COC(=O)CCCNC(=O)OCc1ccccc1 | Active | 39.5% | 3.2 mL | 6% |  |  | 

Row | SMILES | Activity (Ehrlich [1]) | Activity (Ehrlich [2]) | Activity (Ehrlich [3]) | inhibition in vivo at 33 mg/kg (Ehrlich [4]) | LD50 [5] | Survival (P388 [6]) | T/C (P388 [7])
22 | N#CCOC(=O)[C@H](CCC(N)=O)NC(=O)OCc1ccccc1 |  | 40% | 2 mL | 51% |  |  | 
23 | O=C(CCCCCNC(=O)OCc1ccccc1)OC(Br)CBr (centres undefined) |  | 30% | 1.7 mL | 50% |  |  | 
24 | C=COC(=O)CC[C@H](NC(=O)OCc1ccccc1)C(=O)OC=C | Active | 37% | 0.9 mL | 69% | 1500 µmol/kg |  | 
25 | N#CCOC(=O)C[C@H](NC(=O)OCc1ccccc1)C(=O)OCC#N |  | 33% | 4.7 mL | 7% |  |  | 
26 | O=C(O)C[C@H](NC(=O)OCc1ccccc1)C(=O)O | Active | 21% | 3.7 mL | 31% |  |  | 
27 | O=C(O)CNC(=O)OCc1ccccc1 |  | 22% | 0.2 mL | 97% |  |  | 
28 | N#CCOC(=O)CCCNC(=O)OCc1ccccc1 |  | 48.8% | 0.6 mL | 71% |  |  | 
29 | C=COC(=O)[C@H](Cc1ccccc1)NC(=O)OCc1ccccc1 | Active | 0.4% | 0.1 mL | 99.9% | > 6150 µmol/kg |  | 
30 | O=Cc1ccccc1 [BENZALDEHYDE] | Active | 49% | 0.8 mL | 69% |  |  | 
31 | C=COC(=O)[C@H](Cc1ccc(O)cc1)NS(=O)(=O)c1ccc(C)cc1 | Active | 17.5% | 1.9 mL | 75% |  |  | 
32 | N#CCOC(=O)CCCCCNC(=O)OCc1ccccc1 | Active | 41% | 1 mL | 54% |  |  | 
33 | N#CCOC(=O)[C@H](Cc1ccccc1)NC(=O)OCc1ccccc1 | Active | 0.1% | 0.2 mL | 99.9% |  |  | 
34 | CC(C)C[C@H](NC(=O)OCc1ccccc1)C(=O)OCC#N | Active | 38% | 2.7 mL | 27% |  |  | 
35 | O=c1[nH]cc(F)c(=O)[nH]1 [FLUOROURACIL] |  |  |  |  |  | 11 days | 136%
36 | O=C(O)[C@@H]1CCCN1C(=O)OCc1ccccc1 | Active | 32% | 1.9 mL | 53% |  |  | 
37 | Cc1ccc(S(=O)(=O)N[C@@H](Cc2ccc(O)cc2)C(=O)OCC#N)cc1 |  | 15.8% | 3.8 mL | 56% | 220 µmol/kg |  | 
38 | N#CCOC(=O)[C@H](Cc1ccccc1)NC(=O)c1ccccc1 |  | 13.2% | 1.8 mL | 47% |  |  | 
39 | C=COC(=O)[C@H](Cc1ccc(O)cc1)NC(=O)OCc1ccccc1 | Active | 29.7% | 3.9 mL | 16% |  |  | 
40 | CC=O |  | 56% | 2 mL | 43% |  |  | 
41 | O=C(N[C@@H](Cc1ccccc1)C(=O)OC(Br)CBr)OCc1ccccc1 (some centres undefined) | Active | 1.4% | 0 mL | 100% |  |  | 

From ChEMBL document CHEMBL3271995, “Antineoplastic agents. 2. Structure-activity studies on N-protected vinyl, 1,2-dibromoethyl, and cyanomethyl esters of several amino acids” (J Med Chem, 1977)
